What was measured:
mature neurons [1] = assay: inhibition of beta amyloid peptide toxicity in mature neurons; format: cell-based, human
Method: In measuring the ability of inhibiting apoptosis, mature neurons (3-4 weeks following initiation of differentiation) were treated with staurosporine to induce apoptosis. A low concentration of staurosporine (10-100 nM) or beta amyloid 1-42 peptide at 1-10 μM or peptide beta amyloid 25-35 at 10-75 μM concentration was used to stimulate apoptosis. At the same time as treating with staurosporine, the neurons were treated with vehicle or one of the test agents. […] Each compound's inhibitory ability was compared with vehicle and staurosporine.
Necrosis of the mature neurons was initiated using beta amyloid 1-42 peptide at 1-10 μM or peptide beta amyloid 25-35 at 10-75 μM concentration. This synthetic peptide was of the same length naturally found in AD brain. Because lactate dehydrogenase (LDH) is released from cells when the plasma membrane is impaired, the cell loss was quantified by the amount of LDH released into the media following a 24-48 hr treatment. The ability of neurogenic agents to reduce the LDH release induced by beta amyloid, versus vehicle control was used as the measurement of inhibition of neuron degeneration.

[2] = system: human neuronal progenitors cells; assay: in vitro neurogenesis test (MAP-2 staining, neuron number); format: cell-based; conditions: MAP-2 staining on day 11; human neuronal progenitors in differentiation media
Method: The in vitro neurogenesis test was performed using human neuronal progenitors cells. By way of background, the human neuronal progenitor cells can be cultured in media and have the potential to produce mature functional neurons. The neurogenesis factor in the culture media can promote the number of the progenitor cells which differentiate into neurons. Indeed, it is a widely accepted in vitro model to test a chemical's neurogenetic property.
Cells were obtained as human neuronal progenitors from a commercial source and were grown for up to three passages or at any time differentiated to potentially produce mature functional neurons in culture. Following two passages to expand the cells, progenitors were seeded into multi-well microplates and the media were changed to differentiation media (minus serum and mitogen). Within 2 hrs of this media change, a vehicle, positive control or test compound were added to each well. Also, they were added with every further media change (50% volume change every other day). Control wells contained cells and vehicle (0.2% DMSO in DMEM/F12). […]
The cells were stained using MAP-2, a neuronal marker, on day 11. Then, each test compound was assessed for the ability to promote an increase in neuron number and compared with the positive control, leukemia inhibitory factor (LIF).

mature neurons [3] = assay: LDH assay of neuron degeneration due to hydrogen peroxide toxicity; format: cell-based, human; conditions: hydrogen peroxide for 8 hrs, vehicle control = 0% inhibition, n = 5 wells

Compound: 4-Benzo-8-aza-bicyclo[3.2.1]oct-3-yl)-3-(2-chloro-phenyl)-thiourea
- % Inhibition of beta amyloid peptide toxicity (mature neurons [1]): 68%

Compound: COCCN(Cc1cc2ccc(C)c(C)c2nc1Cl)C(=O)Nc1ccccc1OC [1-(2-Chloro-7,8-dimethyl-quinolin-3-ylmethyl)-1-(2-methoxy-ethyl)-3-(2-methoxy-phenyl)-urea]
- increase in the neuron numbers compared with the vehicle control, % of Control [2]: 132 % of Control

Compound: COc1ccccc1NC(=S)N1CCCN(c2nc3cc(C)cc(C)c3cc2C#N)CC1 [4-(3-Cyano-5,7-dimethyl-quinolin-2-yl)-[1,4]diazepane-1-carbothioic acid (2-methoxy-phenyl)-amide]
- increase in the neuron numbers compared with the vehicle control, % of Control [2]: 110 % of Control
- % Inhibition of neuron degeneration due to hydrogen peroxide toxicity (mature neurons [3]): 50%
- % Inhibition of beta amyloid peptide toxicity (mature neurons [1]): 84%

— US9539261B2, “Methods and compositions for stimulating neurogenesis and inhibiting neuronal degeneration” (Neuronascent, Inc., priority 2005, dated 2017)
